Source: US11505558B1, “Antiviral heterocyclic compounds” (Enanta Pharmaceuticals, Inc., priority 2019, dated 2022)

Each compound was assayed on genotype A, "Long" strain RSV (assay: RSV-A assay (CPE, ATPlite readout in Hep-2 cells)). Conditions: human respiratory syncytial virus, HEp-2, Hep-2 cells, genotype A "Long" strain RSV, MOI 0.1; read-out: Human RSV-A (“Long” strain) EC50.
Format: cell-based
In short: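 Protection from RSV-induced cytopathic effect, measured as ATPlite luminescence after 5 days, gave EC50 values. Assay used genotype A Long strain at MOI 0.1 on Hep-2 cells seeded at 8,000/well in DMEM growth media with 10% FBS; compounds tested as 2-fold dilutions in duplicate.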

SMILES	EC50 [nM]
C[C@]1(C(N)=O)COc2c1cc([C@@](O)(CNC(=O)c1cc3ccc(F)cc3[nH]1)C(F)(F)F)nc2-c1ccc(F)cc1 [Example 604]	< 200
C[C@]1(C(N)=O)COc2c1cc([C@@](O)(CNC(=O)c1ccc(OC3CC3)c(-c3ccccn3)c1)C(F)(F)F)nc2-c1ccc(F)cc1 [Example 106]	< 200
C[C@]1(C(N)=O)COc2c1cc([C@@](O)(CNC(=O)c1cc(OC(F)(F)F)c3ncccc3c1)C(F)(F)F)nc2-c1ccc(F)cc1 [Example 278]	< 200
C[C@]1(C(N)=O)COc2c1cc([C@@](O)(CNC(=O)c1cc(OCCO)c3ncccc3c1)C(F)(F)F)nc2-c1ccc(F)cc1 [Example 360]	> 200
C[C@]1(C(N)=O)COc2c1cc([C@@](O)(CNC(=O)c1ccc(N3CCCCC3)c(OC3CC3)c1)C(F)(F)F)nc2-c1ccc(F)cc1 [Example 161]	> 200
COc1cc(C(=O)NC[C@](O)(c2cc3c(c(-c4ccc(F)cc4)n2)OC[C@]3(C)CNC(=O)c2ccccc2)C(F)(F)F)ccc1OCCO [Example 8]	> 200
COc1ccc2[nH]nc(C(=O)NC[C@](O)(c3cc4c(c(-c5ccc(F)cc5)n3)OC[C@]4(C)C(N)=O)C(F)(F)F)c2c1 [Example 586]	> 200
CCn1cc2cc(C(=O)NC[C@](O)(c3cc4c(c(-c5ccc(F)cc5)n3)OC[C@]4(C)C(N)=O)C(F)(F)F)ccc2n1 [Example 655]	< 200
COc1cc(C(=O)NC[C@](O)(c2cc3c(c(-c4ccc(F)c(Cl)c4)n2)OC[C@]3(C)C(N)=O)C2CC2)cc2cc(C)cnc12 [Example 258]	< 200
COc1cc(C(=O)NC[C@](O)(c2cc3c(c(-c4ccc(F)cc4)n2)OC[C@]3(C)C(N)=O)C(F)(F)F)ccc1-c1cnco1 [Example 187]	< 200
C[C@]1(C(N)=O)COc2c1cc([C@@](O)(CNC(=O)c1cc(OCCNS(C)(=O)=O)c3ncccc3c1)C(F)(F)F)nc2-c1ccc(F)cc1 [Example 358]	> 200
Cn1nnc2cc(C(=O)NC[C@](O)(c3cc4c(c(-c5ccc(F)cc5)n3)OC[C@]4(C)C(N)=O)C(F)(F)F)ccc21 [Example 315]	> 200
Cn1cc2cc(C(=O)NC[C@](O)(c3cc4c(c(-c5ccc(F)cc5)n3)OC[C@]4(C)C(N)=O)C(F)(F)F)ccc2n1 [Example 637]	< 200
COc1cc(C(=O)NC[C@](O)(c2cc3c(c(-c4ccc(F)cc4)n2)OC[C@]3(C)C(N)=O)C(F)(F)F)ccc1-c1nnco1 [Example 200]	< 200
C[C@]1(C(N)=O)COc2c1cc([C@@](O)(CNC(=O)c1ccc(OC3CC3)c(N3CCOCC3)c1)C(F)(F)F)nc2-c1ccc(F)cc1 [Example 133]	< 200
C[C@]1(C(N)=O)COc2c1cc([C@@](O)(CNC(=O)c1ccc3[nH]c(=O)[nH]c3c1)C(F)(F)F)nc2-c1ccc(F)cc1 [Example 321]	> 200
CC(C)(O)CNC(=O)[C@@]1(C)COc2c1cc([C@@](O)(CNC(=O)c1cc(Cl)c3ncccc3c1)C(F)(F)F)nc2-c1ccc(F)cc1 [Example 496]	< 200
COc1ccc(CC(=O)NC[C@](O)(c2cc3c(c(-c4ccc(F)cc4)n2)OC[C@]3(C)C(N)=O)C(F)(F)F)cc1OC [Example 592]	> 200
C[C@]1(C(=O)N2CC(O)C2)COc2c1cc([C@@](O)(CNC(=O)c1cc(OC3CC3)c3ncccc3c1)C(F)(F)F)nc2-c1ccc(F)cc1 [Example 470]	> 200
Cc1cnc2c(Nc3ncccn3)cc(C(=O)NC[C@](O)(c3cc4c(c(-c5ccc(F)cc5)n3)OC[C@]4(C)C(N)=O)C(F)(F)F)cc2c1 [Example 346]	< 200
C[C@]1(C(N)=O)COc2c1cc([C@@](O)(CNC(=O)c1cc(-c3cnc(N)nc3)c3ncccc3c1)C(F)(F)F)nc2-c1ccc(F)cc1 [Example 352]	< 200
C[C@]1(C(N)=O)COc2c1cc([C@@](O)(CNC(=O)c1ccc(-c3ccncc3)c(OC3CC3)c1)C(F)(F)F)nc2-c1ccc(F)cc1 [Example 150]	< 200
C[C@]1(C(N)=O)COc2c1cc([C@@](O)(CNC(=O)c1cc(OCCNC(N)=O)c3ncccc3c1)C(F)(F)F)nc2-c1ccc(F)cc1 [Example 359]	> 200
COc1cc(C(=O)NC[C@](O)(c2cc3c(c(-c4ccc(F)cc4)n2)OC[C@]3(C)C(N)=O)C(F)(F)F)ccc1OCCN1CCN(C)CC1 [Example 190]	> 200
COc1cc(C(=O)NC[C@](O)(c2cc3c(c(-c4ccc(F)cc4)n2)OC[C@]3(C)CNC2CC2)C(F)(F)F)ccc1OC1CC1 [Example 17]	< 200
C[C@]1(C(=O)NCC2(O)CC2)COc2c1cc([C@@](O)(CNC(=O)c1cc(OC3CC3)c3ncccc3c1)C(F)(F)F)nc2-c1ccc(F)cc1 [Example 489]	< 200
C[C@]1(C(N)=O)COc2c1cc([C@@](O)(CNC(=O)c1cc(OC3CC3)c3ncccc3c1)C(F)(F)F)nc2-c1ccc(Cl)c(F)c1 [Example 282]	< 200
C[C@]1(CNCC2CC2)COc2c1cc([C@@](O)(CNC(=O)c1ccc(OC(F)F)c(O)c1)C(F)(F)F)nc2-c1ccc(F)cc1 [Example 42]	> 200

SMILES	EC50 [nM]
COc1cc(C(=O)NC[C@](O)(c2cc3c(c(-c4ccc(F)cc4)n2)OC[C@]3(C)C(=O)NC23CC(F)(C2)C3)C(F)(F)F)cc2cccnc12 [Example 55]	< 200
C[C@]1(C(N)=O)COc2c1cc([C@@](O)(CNC(=O)c1cc3c(Cl)cccc3[nH]1)C(F)(F)F)nc2-c1ccc(F)cc1 [Example 602]	> 200
C[C@]1(C(N)=O)COc2c1cc([C@@](O)(CNC(=O)c1ccc(-c3ccc(C(F)(F)F)nc3)c(OC3CC3)c1)C(F)(F)F)nc2-c1ccc(F)cc1 [Example 147]	> 200
C[C@]1(C(N)=O)COc2c1cc([C@@](O)(CNC(=O)c1cc3c(F)cccc3[nH]1)C(F)(F)F)nc2-c1ccc(F)cc1 [Example 601]	> 200
COc1cc(C(=O)NC[C@](O)(c2cc3c(c(-c4ccc(F)cc4)n2)OC[C@]3(C)C(N)=O)C(F)(F)F)ccc1F [Example 316]	> 200
Cc1ncc(-c2ccc(C(=O)NC[C@](O)(c3cc4c(c(-c5ccc(F)cc5)n3)OC[C@]4(C)C(N)=O)C(F)(F)F)cc2OC2CC2)cn1 [Example 164]	> 200
C[C@]1(C(N)=O)COc2c1cc([C@@](O)(CNC(=O)c1cc(OC3CC3)c3[nH]c(=O)ccc3c1)C(F)(F)F)nc2-c1ccc(F)cc1 [Example 584]	< 200
C[C@]1(C(N)=O)COc2c1cc([C@@](O)(CNC(=O)c1cc(Oc3ncco3)c3ncccc3c1)C(F)(F)F)nc2-c1ccc(F)cc1 [Example 389]	< 200
C[C@]1(C(=O)NC2(C#N)CC2)COc2c1cc([C@@](O)(CNC(=O)c1cc(OC3CC3)c3ncccc3c1)C(F)(F)F)nc2-c1ccc(F)cc1 [Example 450]	< 200
COc1ncc(-c2cc(C(=O)NC[C@](O)(c3cc4c(c(-c5ccc(F)cc5)n3)OC[C@]4(C)C(N)=O)C(F)(F)F)ccc2OC2CC2)s1 [Example 130]	> 200
C[C@]1(C(N)=O)COc2c1cc([C@@](O)(CNC(=O)c1cc(Nc3cccnn3)c3ncccc3c1)C(F)(F)F)nc2-c1ccc(F)cc1 [Example 347]	< 200
COc1cc(C(=O)NC[C@](O)(c2cc3c(c(-c4ccc(F)cc4)n2)OC[C@]3(C)COC(=O)Nc2ccccc2)C(F)(F)F)ccc1OCCO [Example 6]	> 200
COc1cc(C(=O)NC[C@](O)(c2cc3c(c(-c4ccc(F)cc4)n2)OC[C@]3(C)C(N)=O)C(F)(F)F)cc2cc(S(C)(=O)=O)cnc12 [Example 649]	> 200
C[C@]1(C(N)=O)COc2c1cc([C@@](O)(CNC(=O)c1ccc(OC3CC3)c(-c3cccnc3C(F)(F)F)c1)C(F)(F)F)nc2-c1ccc(F)cc1 [Example 138]	< 200
C[C@]1(C(N)=O)COc2c1cc([C@@](O)(CNC(=O)c1cc(C(N)=O)ccn1)C(F)(F)F)nc2-c1ccc(F)cc1 [Example 295]	> 200
C[C@]1(C(N)=O)COc2c1cc([C@@](O)(CNC(=O)c1cnccn1)C(F)(F)F)nc2-c1ccc(F)cc1 [Example 299]	> 200
C[C@]1(C(N)=O)COc2c1cc([C@@](O)(CNC(=O)c1ccc(OC3CC3)cc1)C(F)(F)F)nc2-c1ccc(F)cc1 [Example 71]	< 200
COc1cc(C(=O)NC[C@](O)(c2cc3c(c(-c4ccc(F)cc4)n2)OC[C@]3(C)C(=O)NCC(F)(F)F)C(F)(F)F)cc2cccnc12 [Example 48]	< 200
C[C@]1(C(N)=O)COc2c1cc([C@@](O)(CNC(=O)c1ccc(OC3CC3)c(-c3ccnc(C(F)(F)F)c3)c1)C(F)(F)F)nc2-c1ccc(F)cc1 [Example 105]	> 200
C[C@]1(C(N)=O)COc2c1cc([C@@](O)(CNC(=O)c1ccc(-c3cccc(C(F)(F)F)n3)c(OC3CC3)c1)C(F)(F)F)nc2-c1ccc(F)cc1 [Example 162]	> 200
C[C@]1(C(N)=O)COc2c1cc([C@@](O)(CNC(=O)c1ccc(C3=CCOCC3)c(OC3CC3)c1)C(F)(F)F)nc2-c1ccc(F)cc1 [Example 178]	> 200
Cc1cc2cc(C(=O)NC[C@](O)(c3cc4c(c(-c5ccc(F)cc5)n3)OC[C@]4(C)C(N)=O)C(F)(F)F)cc(NC(=O)NCC(C)(C)O)c2nc1C [Example 661]	< 200
CNC(=O)Nc1cc(C(=O)NC[C@](O)(c2cc3c(c(-c4ccc(F)cc4)n2)OC[C@]3(C)C(N)=O)C(F)(F)F)cc2cccnc12 [Example 409]	< 200
Cc1cnc2c(N3CCNC3=O)cc(C(=O)NC[C@](O)(c3cc4c(c(-c5ccc(F)cc5)n3)OC[C@]4(C)C(N)=O)C(F)(F)F)cc2c1 [Example 659]	< 200
Cc1nnc2ccc(C(=O)NC[C@](O)(c3cc4c(c(-c5ccc(F)cc5)n3)OC[C@]4(C)C(N)=O)C(F)(F)F)cc2c1C [Example 231]	> 200
COc1cc(C(=O)NC[C@](O)(c2cc3c(c(-c4ccc(F)cc4)n2)OC[C@]3(C)C(=O)NC2CCCC2)C(F)(F)F)cc2cccnc12 [Example 47]	> 200
C[C@]1(C(N)=O)COc2c1cc([C@@](O)(CNC(=O)c1cc(NC(=O)NC3CNC3)c3ncccc3c1)C(F)(F)F)nc2-c1ccc(F)cc1 [Example 413]	> 200
